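Five compound concentrations were applied to cells in 96-well plates for 48 hours; endpoints were derived by simple linear interpolation of the resulting dose-response curve. TGI is the concentration that stops growth completely.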
Experiments:
Experiment in all cases: NCI tumour cell line growth inhibition, 48 h
[1] = system: OVCAR-5 ovarian
[2] = system: LOX IMVI melanoma
[3] = system: NCI-H23 lung
[4] = system: MOLT-4 leukemia
[5] = system: HL-60(TB) leukemia
[6] = system: SK-MEL-5 melanoma
[7] = system: A498 renal
[8] = system: UO-31 renal
[9] = system: DU-145 prostate
[10] = system: T-47D breast
[11] = system: HCC-2998 colon
[12] = system: A549 NSCLC
[13] = system: HOP-92 NSCLC
[14] = system: ACHN renal
[15] = system: TK-10 renal
[16] = system: OVCAR-3 ovarian
[17] = system: NCI/ADR-RES ovarian
[18] = system: SR leukemia
[19] = system: SN12C renal
[20] = system: K-562 leukemia
[21] = system: CAKI-1 renal
[22] = system: HCT-15 colon
[23] = system: MDA-MB-231 breast
[24] = system: SNB-75 CNS
[25] = system: BT-549 breast
[26] = system: HOP-62 NSCLC
[27] = system: RPMI-8226 leukemia
[28] = system: HT29 colon
[29] = system: PC-3 prostate
[30] = system: UACC-62 melanoma
[31] = system: SNB-19 CNS
[32] = system: OVCAR-4 ovarian
[33] = system: COLO 205 colon
[34] = system: MCF7 breast
[35] = system: SK-MEL-2 melanoma
[36] = system: SK-MEL-28 melanoma
[37] = system: HCT-116 colon
[38] = system: HS 578T breast
[39] = system: CCRF-CEM leukemia
[40] = system: NCI-H226 lung
[41] = system: NCI-H522 lung
[42] = system: U251 CNS
[43] = system: KM12 colon
[44] = system: RXF 393 renal
[45] = system: 786-0 renal
[46] = system: SK-OV-3 ovarian
[47] = system: M14 melanoma
[48] = system: MDA-N
[49] = system: SW-620 colon
[50] = system: UACC-257 melanoma
[51] = system: MALME-3M melanoma
[52] = system: NCI-H460 lung
[53] = system: SF-268 CNS
[54] = system: IGROV1 ovarian
[55] = system: SF-539 CNS
[56] = system: SF-295 CNS
[57] = system: EKVX NSCLC
[58] = system: MDA-MB-435
[59] = system: OVCAR-8 ovarian

Measured: TGI

Cc1ccc2nc3n(c2c1)C(c1c(F)cccc1F)SC3 (stereo not given)
not listed: [57] | [58] | [59]
> 100 µM: all other assays above

COc1ccc2c(c1)O[C@@H]1[C@@H](OC3OC(CO)C(O)C(O)C3O)Oc3cc(OC)c(OC)cc3[C@]1(O)C2=O (stereo not given in full)
not listed: [34]
> 100 µM: all other assays above

COc1ccc(NS(=O)c2ccc(Cl)cc2)cc1 (stereo not given)
39.2 µM: [53]
81.1 µM: [40]
41.2 µM: [10]
76.1 µM: [58]
54.2 µM: [42]
70 µM: [35]
42.4 µM: [8]
30 µM: [55]
63.9 µM: [25]
60 µM: [51]
39.9 µM: [30]
23.8 µM: [43]
not listed: [1] | [7] | [13] | [21] | [24] | [29] | [44] | [46]
> 100 µM: all other assays above

Reference: PubChem BioAssay (NCI)
